Patent publication US9399649B2, “Compounds for treating spinal muscular atrophy” (PTC Therapeutics Inc., priority 2012, dated 2016)

System: full length SMN2 minigene mRNA containing SMN2 exon 7
Experiment: SMN2 minigene mRNA splicing RT-qPCR assay in cultured cells
Type: cell-based, human
Conditions: for SMN2 minigene FL mRNA relative to vehicle: HEK293H cells with SMN2-A minigene, rising concentrations, 24 hr, FIG. 3; for EC (1.5-fold): Homo sapiens, HEK293-H, HEK293H cells stably transfected with SMN2-A minigene, 24 hours, 7-point concentration curve, concentration giving 1.5-fold full length SMN2 mRNA vs vehicle, read-out: EC1.5x for production of full length SMN2 mRNA
Method in brief: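 HEK293H cells stably carrying SMN2-A minigene treated 24 h (37 °C) with compound, 7-point 3.16-fold dilution, duplicates. Multiplex RT-qPCR on lysate with exon 7/luciferase primers and exon 7–8 junction probe (minigene-specific). Full-length transcript normalised to GAPDH by modified ΔΔCt, expressed relative to vehicle-treated cells.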

SMILES	SMN2 minigene FL mRNA relative to vehicle	EC (1.5-fold) [µM]
Cc1cn2cc(-c3cc4ccc(N5CCN(C)CC5)cc4c(=O)o3)nc2c(C)n1 [Cpd 65, 3-(6,8-dimethylimidazo[1,2-a]pyrazin-2-yl)-7-(4-methylpiperazin-1-yl)-1H-isochromen-1-one]	increased SMN2 minigene FL mRNA at low concentrations	≤ 0.1
Cc1cn2cc(-c3cc4ccc(N5CCN6CCC[C@H]6C5)cc4c(=O)o3)nc2c(C)n1 [Cpd 69, 3-(6,8-dimethylimidazo[1,2-a]pyrazin-2-yl)-7-[(8aS)-hexahydropyrrolo[1,2-a]pyrazin-2(1H)-yl]-1H-isochromen-1-one]	increased SMN2 minigene FL mRNA at low concentrations	≤ 0.1
